# Data taken from US8008316B2, “Azonafide derived tumor and cancer targeting compounds” (The United States of America as represented by the …, priority 2006, dated 2011).
# Tested on: Gastrin receptor-expressing rat pancreatic cells (NIH line AR42J)
# Experiment: Viable cell count of AR42J cells after about five days of exposure
# Format: cell-based
# Conditions: for % Viable Cells: rat
# Experimental: The number of viable cells left in the culture after the five day period was measured, and compared to a control culture that was not exposed either compound. The number of cells remaining in each of the experimental cultures, expressed as a percentage of viable cells in the control culture, is provided in Table 4, below.
smiles,measurement,setting,value
"COc1ccc2c3c(c4ccccc4cc13)C(=O)N(CCN(C)CCN)C2=O [MD117, 2-{2-[(2-aminoethyl)methylamino]ethyl}-6-methoxy-1,2-dihydro-3H-dibenzo[de,h]isoquinoline-1,3-dione]",cell killing at the tested concentrations,"AR42J, 10, 50, 100 and 1000 nM, result in words",killing all cells in the culture at each of the tested concentrations
same,CC50,"Rattus norvegicus, AR-42J, 120 h, read-out: LC50 (median concentration required for death of 50% of the cell population), AR42J, about five days, calculated from the data",3 nM
same,% Viable Cells,0.01 µM,−100%
same,% Viable Cells,0.05 µM,−100%
same,% Viable Cells,0.1 µM,−100%
same,% Viable Cells,1 µM,−100%
